Activity calls are given as the source filed them.
Test system: not listed separately
Assay: microbe, parasite or virus in culture
Format: functional
Details: Mycobacterium tuberculosis

| Compound | CC50 |
| --- | --- |
| Cc1ccc(N(CCC#N)C(=O)CCl)cc1C | 1.84 µM (active) |

Molecular target: T1, Heat shock factor protein 1 (Mus musculus, UniProt P38532)
T1 sequence (P38532 whole entry): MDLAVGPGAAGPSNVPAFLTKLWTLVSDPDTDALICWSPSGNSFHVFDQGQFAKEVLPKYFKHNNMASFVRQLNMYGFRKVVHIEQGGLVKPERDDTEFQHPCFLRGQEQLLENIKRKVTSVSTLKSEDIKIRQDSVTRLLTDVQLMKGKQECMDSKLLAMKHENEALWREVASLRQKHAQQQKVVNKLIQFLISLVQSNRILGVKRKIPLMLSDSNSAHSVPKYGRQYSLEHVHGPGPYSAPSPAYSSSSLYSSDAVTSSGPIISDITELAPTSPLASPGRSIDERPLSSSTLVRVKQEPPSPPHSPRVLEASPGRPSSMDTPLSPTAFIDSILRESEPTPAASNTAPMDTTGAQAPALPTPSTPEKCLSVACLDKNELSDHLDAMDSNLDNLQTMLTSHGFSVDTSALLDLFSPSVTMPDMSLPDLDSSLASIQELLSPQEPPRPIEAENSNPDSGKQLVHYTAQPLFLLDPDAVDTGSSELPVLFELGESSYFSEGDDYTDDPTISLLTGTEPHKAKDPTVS
Assay: HSF1 potentiators in luciferase reporter cells, confirmation, cell-based, NIH3T3, luminescence, dose retest (AID 435004);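 also: stress induced by proteasome inhibitor MG132 added 30 min after compound; luciferase reporter driven by HSF1 response element in NIH3T3 cells; actives raise luminescence as potentiators of the MG132 stress response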
Format: functional
Details: not given

| Compound | EC50 |
| --- | --- |
| O=C(/C=C/Nc1ccccc1)c1ccccc1 | > 260 µM (inconclusive) |

Molecular target: Large T antigen (Simian virus 40, UniProt P03070);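 also: Confirmatory-stage PubChem screen for compounds that inhibit SV40 T antigen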
Assay: not given
Format: functional, Betapolyomavirus macacae
Details: not given

Large T antigen, sequence (P03070 whole entry): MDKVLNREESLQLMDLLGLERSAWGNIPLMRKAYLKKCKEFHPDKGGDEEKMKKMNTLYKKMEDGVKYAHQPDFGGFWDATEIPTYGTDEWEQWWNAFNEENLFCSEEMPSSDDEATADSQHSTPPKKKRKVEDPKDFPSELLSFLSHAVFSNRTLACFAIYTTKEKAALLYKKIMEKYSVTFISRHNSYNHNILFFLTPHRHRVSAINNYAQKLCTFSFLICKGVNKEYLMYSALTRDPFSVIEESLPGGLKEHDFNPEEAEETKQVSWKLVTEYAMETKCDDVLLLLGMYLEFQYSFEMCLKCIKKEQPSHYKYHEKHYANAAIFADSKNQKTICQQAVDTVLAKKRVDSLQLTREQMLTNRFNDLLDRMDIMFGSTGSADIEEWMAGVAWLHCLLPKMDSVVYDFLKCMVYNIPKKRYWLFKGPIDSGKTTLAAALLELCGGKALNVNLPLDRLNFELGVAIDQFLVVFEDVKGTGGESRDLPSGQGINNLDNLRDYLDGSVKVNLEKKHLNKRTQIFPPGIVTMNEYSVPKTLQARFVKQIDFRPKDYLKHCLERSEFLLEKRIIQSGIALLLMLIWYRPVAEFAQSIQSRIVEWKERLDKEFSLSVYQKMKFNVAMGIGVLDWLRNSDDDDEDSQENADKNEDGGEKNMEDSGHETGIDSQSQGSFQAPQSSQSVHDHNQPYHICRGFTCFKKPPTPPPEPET

| Compound | IC50 |
| --- | --- |
| COc1ccc(-c2cc(=O)oc3c(O)c(O)ccc23)cc1 | 8.81 µM (active) |
| COc1ccc(Cc2nc3ccccc3n2CC(=O)N/N=C/c2ccc(O)cc2)cc1OC | > 100 µM (active) |
| COc1cc(/C=N/NC(=O)CNC(=O)c2ccco2)ccc1O | 6.31 µM (active) |
| COc1cc2c(OC)c3ccoc3nc2cc1O | 20 µM (active) |

Molecular target: T2, Rac GTPase-activating protein 1 (Homo sapiens, UniProt Q9H0H5)
T2 sequence (Q9H0H5 whole entry): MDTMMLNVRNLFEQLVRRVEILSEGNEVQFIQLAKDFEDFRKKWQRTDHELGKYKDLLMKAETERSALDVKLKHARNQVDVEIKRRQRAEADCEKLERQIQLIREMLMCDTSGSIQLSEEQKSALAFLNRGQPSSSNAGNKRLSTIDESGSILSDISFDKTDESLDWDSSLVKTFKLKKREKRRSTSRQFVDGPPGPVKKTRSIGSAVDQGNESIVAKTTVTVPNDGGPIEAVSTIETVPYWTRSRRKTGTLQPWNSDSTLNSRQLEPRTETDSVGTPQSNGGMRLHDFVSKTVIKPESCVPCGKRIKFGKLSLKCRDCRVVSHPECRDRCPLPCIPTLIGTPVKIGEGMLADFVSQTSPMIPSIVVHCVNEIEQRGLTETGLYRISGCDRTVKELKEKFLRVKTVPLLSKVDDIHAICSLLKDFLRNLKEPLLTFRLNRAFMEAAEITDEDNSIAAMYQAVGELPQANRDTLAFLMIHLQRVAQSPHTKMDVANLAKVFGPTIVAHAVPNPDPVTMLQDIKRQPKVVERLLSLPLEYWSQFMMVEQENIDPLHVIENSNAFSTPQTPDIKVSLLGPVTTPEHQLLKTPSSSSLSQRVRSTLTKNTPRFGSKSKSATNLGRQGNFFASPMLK
Assay: MgcRacGAP GTPase-activating activity inhibitors, confirmation, biochemical, ADP Hunter fluorescence, primary and confirmatory (AID 624330)
Format: functional
Details: not given

| Compound | IC50 |
| --- | --- |
| COc1cc(/C=N/NC(=O)CNC(=O)c2ccco2)ccc1O | 38.5 µM (active) |
| Cc1nc(C)c(CC(=O)N/N=C/c2ccc(O)cc2)c(O)n1 | 69.6 µM (active) |

Test system: not listed separately
Assay: cytotoxicity toward NIH3T3 fibroblasts, dose response, counter-screen, cell-based, ATP luminescence, mouse fibroblasts (AID 2010);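 also: cells exposed to compound for about 90 hours before reading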
Format: functional
Details: not given

| Compound | EC50 |
| --- | --- |
| Cc1ccc(N(CCC#N)C(=O)CCl)cc1C | 4.81 µM (active) |

Molecular target: T3, Protein skinhead-1 (Caenorhabditis elegans, UniProt P34707)
T3 sequence (P34707 whole entry): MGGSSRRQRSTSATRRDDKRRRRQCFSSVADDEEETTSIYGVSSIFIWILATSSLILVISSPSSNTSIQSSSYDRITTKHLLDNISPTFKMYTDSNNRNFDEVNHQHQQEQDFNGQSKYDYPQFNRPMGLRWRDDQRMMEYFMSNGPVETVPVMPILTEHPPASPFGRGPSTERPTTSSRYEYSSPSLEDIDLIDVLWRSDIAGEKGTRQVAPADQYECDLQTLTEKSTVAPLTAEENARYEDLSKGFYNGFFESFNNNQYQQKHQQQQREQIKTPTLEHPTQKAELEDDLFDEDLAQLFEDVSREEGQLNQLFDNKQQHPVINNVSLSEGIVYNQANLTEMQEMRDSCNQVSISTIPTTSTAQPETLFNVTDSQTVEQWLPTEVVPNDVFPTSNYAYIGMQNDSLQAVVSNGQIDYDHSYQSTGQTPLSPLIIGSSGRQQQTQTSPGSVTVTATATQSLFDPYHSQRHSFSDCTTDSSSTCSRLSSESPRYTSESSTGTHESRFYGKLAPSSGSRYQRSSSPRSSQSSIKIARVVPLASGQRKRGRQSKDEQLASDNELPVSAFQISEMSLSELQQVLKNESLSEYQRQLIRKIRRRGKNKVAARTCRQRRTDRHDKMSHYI
Assay: not given
Format: functional
Details: not given

| Compound | IC50 |
| --- | --- |
| O=c1c2cc3c(cc2[nH]c(=S)n1Cc1ccco1)OCO3 | > 100 µM (inactive) |
| Cc1nc(NC(=O)C2CC3CCCC(C2)C3=O)sc1C (stereo unspecified) | > 100 µM (inactive) |
| O=C1/C(=C\c2ccc(C(F)(F)F)cc2)CSc2sccc21 | 69.4 µM (inactive) |
| O=C(/C=C/Nc1ccccc1)c1ccccc1 | > 100 µM (inactive) |
| Cc1c(NC(=O)CSc2ccc3c(c2)OCCO3)c(=O)n(-c2ccccc2)n1C | > 100 µM (inactive) |
| O=C(Nc1nc(-c2ccccc2)cs1)c1cccs1 | 59.9 µM (inactive) |
| COc1ccc(CNC(C)C(=O)Nc2ccc3ccccc3c2)cc1OC (stereo unspecified) | > 100 µM (inactive) |
| Fc1cccc(-c2csc(-c3ccno3)n2)c1 | > 100 µM (inactive) |
| Clc1ccc(-c2cn3cccnc3n2)cc1Cl | > 100 µM (inactive) |
| Cc1cccc(-c2nc3c(c(SCC(=O)N4CCOCC4)n2)CCCC3)c1 | > 100 µM (inactive) |
| COc1ccc(-c2cc(C(=O)Nc3c(C)n(C)n(-c4ccccc4)c3=O)c3ccccc3n2)c(OC)c1 | > 100 µM (inactive) |
| CCCC(=O)N(CCN1CCOCC1)c1nc2c(OCC)cccc2s1 | > 100 µM (inactive) |
| O=C(NCc1ccncc1)c1ccc(-c2ccc(F)c(F)c2)c2ccoc12 | 20.2 µM (active) |
| Cc1ccc(NC(=O)COC(=O)C2(C)CC2(Cl)Cl)cc1S(=O)(=O)N1CCOCC1 (stereo unspecified) | > 100 µM (inactive) |
| CC/C(=C\c1ccc(Cl)cc1)c1ccncc1 | 13.5 µM (active) |
| c1ccc(-c2cnc(-c3ccccc3)nn2)cc1 | 78.4 µM (inactive) |
| CC1(Cc2ccc(OC(F)(F)F)cc2)C(=O)Nc2ccc(OC(F)(F)F)cc21 (stereo unspecified) | 34.3 µM (active) |
| COc1ccc(C2C(C(=O)OC(C)C)=C(C)N=c3s/c(=C\c4cccs4)c(=O)n32)cc1 (stereo unspecified) | > 100 µM (inactive) |

Molecular target: FAD-linked sulfhydryl oxidase ALR (Homo sapiens, UniProt P55789)
Assay: inhibitors of human ALR sulfhydryl oxidase, dose response, biochemical, H2O2 detection, luminescence, cherry-pick (AID 493248)
Details: not given

FAD-linked sulfhydryl oxidase ALR, sequence (P55789 whole entry): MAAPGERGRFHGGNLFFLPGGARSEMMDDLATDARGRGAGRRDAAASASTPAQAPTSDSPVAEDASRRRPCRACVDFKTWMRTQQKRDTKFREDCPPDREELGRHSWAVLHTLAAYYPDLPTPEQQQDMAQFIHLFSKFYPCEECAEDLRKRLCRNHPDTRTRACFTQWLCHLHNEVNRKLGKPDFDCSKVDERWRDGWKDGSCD

| Compound | AC50 |
| --- | --- |
| COc1ccc(-c2cc(=O)oc3c(O)c(O)ccc23)cc1 | 1.35 µM (active) |
| CC(=O)N1CCN=C1SCc1c(F)cccc1Cl | 0.631 µM (active) |
| Cc1cc2ncn(C(=O)c3ccc(F)cc3)c2cc1C | 5.34 µM (active) |
| CN(NC1CC(=O)N(c2ccccc2)C1=O)c1ccccc1 (stereo unspecified) | 6.83 µM (active) |
| Cc1ccc(S(=O)(=O)NN2C(=O)/C(=C/c3cccnc3)SC2=S)cc1 | 4.96 µM (active) |
| COC(=O)c1ccccc1N=Nc1c(N)n[nH]c1N | 6.65 µM (active) |
| c1ccc(CN2CCC(=NNc3nc4ccccc4[nH]3)CC2)cc1 | 2.31 µM (active) |
| O=S(=O)(Nc1ccc(N2CCCCC2)cc1)c1ccccc1F | 2.08 µM (active) |
| CC(C)CN1C(=O)NC(NS(=O)(=O)c2ccc(N)cc2)(C(F)(F)F)C1=O (stereo unspecified) | 0.73 µM (active) |
| N#CCC(=O)Nc1ccc(C(=O)Nc2cccnc2)cc1 | 0.87 µM (active) |
| Cc1[nH]c(C)c(S(=O)(=O)NCc2ccc(N(C)C)cc2)c1C(=O)N1CCCC1 | 16.1 µM (active) |
| COc1ccc(Cc2nc3ccccc3n2CC(=O)N/N=C/c2ccc(O)cc2)cc1OC | 0.901 µM (active) |
| COc1cc(/C=N/NC(=O)CNC(=O)c2ccco2)ccc1O | 3.47 µM (active) |
| COc1cc(/C=N/N2C(C)CCCC2C)cc(Br)c1O (stereo unspecified) | 0.495 µM (active) |
| Cc1nc(C)c(CC(=O)N/N=C/c2ccc(O)cc2)c(O)n1 | 2.17 µM (active) |
| COc1cc2c(OC)c3ccoc3nc2cc1O | 0.49 µM (active) |

Molecular target: T4, Protein RecA (Mycobacterium tuberculosis, UniProt P9WHJ3)
T4 sequence (P9WHJ3 whole entry): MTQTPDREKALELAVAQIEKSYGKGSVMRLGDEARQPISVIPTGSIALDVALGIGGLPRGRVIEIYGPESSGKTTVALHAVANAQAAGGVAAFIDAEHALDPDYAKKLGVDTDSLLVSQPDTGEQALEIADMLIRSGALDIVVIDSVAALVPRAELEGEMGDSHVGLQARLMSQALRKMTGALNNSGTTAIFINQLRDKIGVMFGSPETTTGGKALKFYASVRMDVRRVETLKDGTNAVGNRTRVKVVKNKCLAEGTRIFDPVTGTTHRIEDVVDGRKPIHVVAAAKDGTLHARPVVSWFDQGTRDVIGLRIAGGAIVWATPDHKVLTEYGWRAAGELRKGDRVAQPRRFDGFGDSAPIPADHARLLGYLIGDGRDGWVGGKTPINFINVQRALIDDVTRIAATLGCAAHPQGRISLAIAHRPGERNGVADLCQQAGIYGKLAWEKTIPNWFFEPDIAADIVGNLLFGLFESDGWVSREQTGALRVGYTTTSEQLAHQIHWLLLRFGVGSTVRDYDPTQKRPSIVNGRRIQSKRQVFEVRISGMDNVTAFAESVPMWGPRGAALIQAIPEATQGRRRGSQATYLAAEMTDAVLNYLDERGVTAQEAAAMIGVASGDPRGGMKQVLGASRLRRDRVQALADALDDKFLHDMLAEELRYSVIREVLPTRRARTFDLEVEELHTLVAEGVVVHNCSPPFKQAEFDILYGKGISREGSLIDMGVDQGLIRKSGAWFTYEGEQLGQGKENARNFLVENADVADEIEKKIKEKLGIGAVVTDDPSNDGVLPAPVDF
Assay: Fluorescence Cell-Free Homogeneous Dose Retest to Identify Inhibitors of RecA-Intein Splicing Activity. [Related pubchem assays (depositor defined):AID2097, AID2223, AID489010, AID492950]
Format: functional
Details: not given

| Compound | EC50 |
| --- | --- |
| Cc1ccc(N(CCC#N)C(=O)CCl)cc1C | 5.7 µM (active) |

Molecular target: T5, Replicative DNA helicase DnaB (Mycobacterium tuberculosis, UniProt P9WMR3)
T5 sequence (P9WMR3 whole entry): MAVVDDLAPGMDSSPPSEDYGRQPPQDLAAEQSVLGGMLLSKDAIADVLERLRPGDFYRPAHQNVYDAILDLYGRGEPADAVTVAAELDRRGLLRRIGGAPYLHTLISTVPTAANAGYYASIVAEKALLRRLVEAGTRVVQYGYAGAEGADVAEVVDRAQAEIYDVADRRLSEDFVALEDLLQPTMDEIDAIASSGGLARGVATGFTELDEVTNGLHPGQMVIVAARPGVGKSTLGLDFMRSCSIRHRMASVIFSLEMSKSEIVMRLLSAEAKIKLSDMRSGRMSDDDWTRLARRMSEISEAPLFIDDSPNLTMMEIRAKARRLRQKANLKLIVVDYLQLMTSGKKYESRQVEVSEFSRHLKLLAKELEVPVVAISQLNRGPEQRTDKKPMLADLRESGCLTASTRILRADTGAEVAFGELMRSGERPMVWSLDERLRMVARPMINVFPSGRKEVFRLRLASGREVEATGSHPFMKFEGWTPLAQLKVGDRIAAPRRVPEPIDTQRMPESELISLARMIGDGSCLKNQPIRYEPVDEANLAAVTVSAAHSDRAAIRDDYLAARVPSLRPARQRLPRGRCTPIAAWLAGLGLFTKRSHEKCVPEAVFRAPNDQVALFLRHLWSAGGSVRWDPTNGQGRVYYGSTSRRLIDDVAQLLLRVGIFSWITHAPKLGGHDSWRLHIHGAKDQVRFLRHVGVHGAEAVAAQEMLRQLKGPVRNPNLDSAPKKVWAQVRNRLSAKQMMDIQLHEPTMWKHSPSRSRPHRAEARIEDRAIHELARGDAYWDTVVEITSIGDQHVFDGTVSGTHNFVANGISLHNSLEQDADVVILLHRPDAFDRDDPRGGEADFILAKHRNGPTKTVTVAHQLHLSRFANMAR
Assay: DnaB intein splicing inhibitors, dose response, biochemical, cell-free fluorescence (AID 449749)
Format: functional
Details: not given

| Compound | AC50 |
| --- | --- |
| Cc1ccc(N(CCC#N)C(=O)CCl)cc1C | 167 µM (active) |

Test system: not listed separately
Assay: inhibitors of intracellular T. cruzi replication, confirmation, NIH3T3 host cells, beta-gal luminescence (AID 2044);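 also: intracellular parasites grown in NIH/3T3 mouse fibroblasts as host cells; luminescent beta-galactosidase reporter signal from transgenic T. cruzi replicating inside host cells; inhibitors lower the luminescence signal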
Format: functional, cell-based
Details: not given

| Compound | EC50 |
| --- | --- |
| Cc1ccc(N(CCC#N)C(=O)CCl)cc1C | 3.59 µM (active) |
